Reference: ChEMBL document CHEMBL1201862, “PubChem BioAssay data set” (2004)
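Assay format: 96-well plates, 48-hour exposure. GI50 marks 50% less growth.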 Activity calls are given as the source filed them. Cut-off read from the data, not from the text of the source: active = GI50 up to about 1.1 µM and inactive = higher.

How the values were obtained:
Assay in all cases: inhibition of tumour cell growth, NCI panel, 48 h
[1] = system: HOP-92
[2] = system: HT-29
[3] = system: HCC 2998
[4] = system: MDA-MB-435
[5] = system: NCI/ADR-RES
[6] = system: OVCAR-3
[7] = system: RXF 393
[8] = system: ACHN
[9] = system: MDA-MB-231
[10] = system: HOP-62
[11] = system: IGROV-1
[12] = system: Malme-3M
[13] = system: MOLT-4
[14] = system: HCT-15
[15] = system: SNB-19
[16] = system: SR
[17] = system: COLO 205
[18] = system: OVCAR-8
[19] = system: MCF7
[20] = system: NCI-H460

Compound	GI50 [1]	GI50 [2]	GI50 [3]	GI50 [4]	GI50 [5]	GI50 [6]	GI50 [7]	GI50 [8]	GI50 [9]	GI50 [10]	GI50 [11]	GI50 [12]	GI50 [13]	GI50 [14]	GI50 [15]	GI50 [16]	GI50 [17]	GI50 [18]	GI50 [19]	GI50 [20]
NS(=O)(=O)c1ccc(N=C2C(=O)Nc3ccccc32)cc1	> 100 µM (inactive)	> 100 µM (inactive)	> 100 µM (inactive)	24.5 µM (inactive)	> 100 µM (inactive)	> 100 µM (inactive)	> 100 µM (inactive)	> 100 µM (inactive)	> 100 µM (inactive)	> 100 µM (inactive)	> 100 µM (inactive)	> 100 µM (inactive)	> 100 µM (inactive)	> 100 µM	> 100 µM (inactive)	67.8 µM (inactive)	13.1 µM (inactive)	> 100 µM (inactive)	90.2 µM (inactive)	> 100 µM (inactive)
OC1COC(n2c3ccc(Br)cc3c3ccc4c5ccccc5[nH]c4c32)C(O)C1O (stereo not given)	2.54 µM (inactive)	3.15 µM (inactive)	2.67 µM (inactive)	3.89 µM (inactive)	4.07 µM (inactive)	3.37 µM (inactive)	1.76 µM (inactive)	2.84 µM (inactive)	2.14 µM (inactive)	3.64 µM (inactive)	1.21 µM (inactive)	3.88 µM (inactive)	3.05 µM (inactive)	3.37 µM	10.7 µM (inactive)	3.67 µM (inactive)	1.89 µM (inactive)	3.65 µM (inactive)	2.99 µM (inactive)	2.58 µM (inactive)
N#CC(NNC(=O)Cc1ccccc1)c1ccccc1O (stereo not given)	23.3 µM (inactive)	9.18 µM (inactive)	12.7 µM (inactive)	27.7 µM (inactive)	3.93 µM (inactive)	3.75 µM (inactive)	24.7 µM (inactive)	6.56 µM (inactive)	8.2 µM (inactive)	15.8 µM (inactive)	21.2 µM (inactive)	16.3 µM (inactive)	3.72 µM (inactive)	4.25 µM	21.3 µM (inactive)	7.29 µM (inactive)	12.1 µM (inactive)	12.3 µM (inactive)	10.2 µM (inactive)	6.84 µM (inactive)
COc1cc(-c2cc(=O)c3c(OC)c(OC)c(OC)c(OC)c3o2)cc(OC)c1OC [HEPATAMETHOXYFLAVONE]	9.98 µM (inactive)	35.9 µM (inactive)	30.3 µM (inactive)	29 µM (inactive)	23.6 µM (inactive)	25.5 µM (inactive)	28.1 µM (inactive)	21.9 µM (inactive)	31.6 µM (inactive)	41.9 µM (inactive)	52.2 µM (inactive)	39.6 µM (inactive)	24.9 µM (inactive)	33.4 µM	76.6 µM (inactive)	> 100 µM (inactive)	18.7 µM (inactive)	24.5 µM (inactive)	84.3 µM (inactive)	42.3 µM (inactive)
